Test results: paper PMC4186383, “Evaluation of radical scavenging properties of shikonin” (Journal of Clinical Biochemistry and Nutrition, 2014)

Columns and labels:
[1] = molecular target: T1, Nox2 (NADPH oxidase 2, flavocytochrome b558) (Sus scrofa, UniProt P52649); experiment: cell-free reconstitution assay, NADPH oxidation; type: biochemical
T1 construct: gene CYBB; detergent-solubilized resting neutrophil membranes (1 pmol Nox2/flavocytochrome b558) plus cytosol; with cytosolic components of the Nox2 system

[2] = molecular target: T1, Nox2 (NADPH oxidase 2, flavocytochrome b558); experiment: cell-free reconstitution assay, SOD-sensitive cytochrome c reduction; type: biochemical

`CC(C)=CC[C@@H](O)C1=CC(=O)c2c(O)ccc(O)c2C1=O` [shikonin] was tested, and the IC50 [1] was 1.1 µM.

`CC(C)=CC[C@H](O)C1=CC(=O)c2c(O)ccc(O)c2C1=O` [alkannin] showed an IC50 [2] of 2.2 µM.
